In ChEMBL document CHEMBL1201862, “PubChem BioAssay data set” (2004):
One block for each compound: values may come before it. Activity calls are given as the source filed them.

Experiments:
Streptococcus = experiment: GAS UMAA2166 growth inhibition – luminescence, BacTiterGlo, counter-screen for streptokinase expression inhibitor project, dose response (AID 1915); format: functional, organism-based;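 also: potency for reduction of bacterial viability or growth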
[1] = target: T1, Runt-related transcription factor 1/Core-binding factor subunit beta (Homo sapiens, UniProt Q01196+Q13951); experiment: Runt domain/CBFb-SMMHC interaction disruptors – biochemical, TR-FRET (AID 1438); format: protein assay
[2] = target: T1, Runt-related transcription factor 1/Core-binding factor subunit beta; experiment: disruptors of Runt domain/CBFb-SMMHC interaction – biochemical, FRET, Cerulean-Runt, Venus-CBFb-SMMHC, uHTS, […] (AID 1434); format: protein assay
[3] = system: Streptococcus sp. 'group A'; experiment: Streptococcus pyogenes SK(-)GAS viability under kanamycin – luminescence, BacTiterGlo, confirmation, counter-screen for streptokinase expression inhibitor project, dose response (AID 1900); format: functional, organism-based
Cytochrome P450 3A4 = Cytochrome P450 3A4 (Homo sapiens, UniProt P08684);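 also: CYP3A4 tested as one member of a cytochrome P450 panel screen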
[4] = Luminescence Cell-Based Dose Retest to Confirm Inhibitors of Cancer Stem Cells. [Related pubchem assays (depositor defined):AID2717, AID2721]; format: functional; conditions: Homo sapiens
INS1 = experiment: INS-1E survival protection against cytokine death – cell-based, luminescence, retest, dose response (AID 449756); format: functional; conditions: Rattus norvegicus;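 also: cell death triggered by IL-1 beta plus TNF-alpha plus IFN-gamma mixture; protective hits raise ATP signal compared with cytokine alone wells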
[5] = Trypanosoma cruzi growth suppression in host cells – NIH3T3 host cells, beta-gal luminescence, confirmation (AID 2044); format: functional, cell-based;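 also: intracellular parasites grown in NIH/3T3 mouse fibroblasts as host cells; luminescent beta-galactosidase reporter signal from transgenic T. cruzi replicating inside host cells; inhibitors lower the luminescence signal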
Cytochrome P450 2D6 = Cytochrome P450 2D6 (Homo sapiens, UniProt P10635);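 also: CYP2D6 member of a cytochrome P450 panel assay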
Mucolipin-3 = Mucolipin-3 (Homo sapiens, UniProt Q8TDD5); experiment: Fluorescence counterscreen assay for […] agonists: dose response cell-based high-throughput screening assay to identify agonists of the transient receptor potential channel ML3 (TRPML3). [Related pubchem assays: 1424, 1448 ]; format: functional
[6] = NIH3T3 cell viability loss – ATP luminescence, mouse fibroblasts, counter-screen, dose response (AID 2010); format: functional, cell-based;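 also: cells exposed to compound for about 90 hours before reading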
Ion channel NompC = Ion channel NompC (Danio rerio, UniProt Q7T1G6); experiment: Dose response cell-based high-throughput screening assay for agonists of the transient receptor potential channel N1 (TRPN1). [Related pubchem assays (depositor defined):AID1424, AID1448]; format: functional
[7] = target: Intestinal-type alkaline phosphatase (Homo sapiens, UniProt P09923); experiment: activation of human intestinal alkaline phosphatase – biochemical, dose response (AID 488873); format: functional
Large T antigen = Large T antigen (Simian virus 40, UniProt P03070); format: functional, Betapolyomavirus macacae;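 also: Confirmatory-stage PubChem screen for compounds that inhibit SV40 T antigen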
[8] = target: T2, Alkaline phosphatase, tissue-nonspecific isozyme (Homo sapiens, UniProt P05186); experiment: activation of tissue-nonspecific alkaline phosphatase – biochemical, TNAP isozyme, mouse IAP uHTS hits, selectivity assay for mouse IAP activator project, dose response (AID 488880); format: functional
T2 sequence (P05186 whole entry): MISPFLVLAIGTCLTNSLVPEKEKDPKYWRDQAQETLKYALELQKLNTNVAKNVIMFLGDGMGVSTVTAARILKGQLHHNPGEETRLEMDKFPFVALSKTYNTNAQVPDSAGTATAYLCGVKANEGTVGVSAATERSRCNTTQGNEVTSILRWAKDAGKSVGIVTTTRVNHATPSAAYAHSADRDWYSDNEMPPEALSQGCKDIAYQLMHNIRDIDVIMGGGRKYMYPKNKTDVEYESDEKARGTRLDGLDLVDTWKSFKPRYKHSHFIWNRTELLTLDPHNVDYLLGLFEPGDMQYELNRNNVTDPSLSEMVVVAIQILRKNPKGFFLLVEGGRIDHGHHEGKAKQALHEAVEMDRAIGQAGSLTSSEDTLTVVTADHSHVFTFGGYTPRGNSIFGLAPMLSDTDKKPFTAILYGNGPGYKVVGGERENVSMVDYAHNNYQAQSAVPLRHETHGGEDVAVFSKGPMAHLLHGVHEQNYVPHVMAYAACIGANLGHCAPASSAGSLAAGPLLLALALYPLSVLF

Vero = experiment: viability of Vero cells under compound – cytotoxicity control for flavivirus capping enzyme inhibitors (AID 588742); format: functional; conditions: Chlorocebus sabaeus
[9] = target: Intestinal-type alkaline phosphatase (Mus musculus, UniProt P24822); experiment: mouse intestinal alkaline phosphatase activators, dose response, biochemical, luminescence, uHTS hits (AID 488783); format: functional
[10] = target: T3, Delta-type opioid receptor (Homo sapiens, UniProt P41143); experiment: HTS Image-Based Screen for Agonists of the DOR Receptor. [Related pubchem assays (depositor defined):AID1777, AID1786, AID2133]; format: functional
[11] = target: T4, Kappa-type opioid receptor (Homo sapiens, UniProt P41145); format: functional
[12] = fluconazole-exposed Candida albicans growth modulators – fluorescence, retest, confirmation (AID 2467); format: functional, cell-based
[13] = target: ATP-dependent molecular chaperone HSP82 (Candida albicans (strain WO-1) (Yeast), UniProt C4YTQ8); experiment: steroid-induced GRE reporter decrease in yeast – S. cerevisiae, luminescence, Hsp90 inhibitor project, dose response (AID 2400); format: functional, cell-based;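 also: beta-galactosidase luminescence from glucocorticoid response element reporter as proxy for Hsp90 function; inhibitor potency where signal loss means Hsp90 inhibition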
[14] = target: Heat shock protein HSP 90-alpha (Homo sapiens, UniProt P07900); format: functional, organism-based
Mu-type opioid receptor = Mu-type opioid receptor (Homo sapiens, UniProt P35372); experiment: HTS Image-Based Screen for Agonists of the MOR Receptor. [Related pubchem assays (depositor defined):AID1777, AID1785, AID1786, AID2133]; format: functional;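 also: imaging of beta-arrestin GFP recruitment into spots after receptor activation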
Beta-galactosidase = Beta-galactosidase (Escherichia coli, UniProt Q8VNN2); format: functional
[15] = NIH-3T3 fibroblast cytotoxicity, dose response, cytotoxicity control, cell-based, fluorescence, Alamar Blue, secondary assay (AID 2327); format: functional;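 also: NIH-3T3 mouse fibroblasts cultured with fluconazole at 8 µg/mL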
[16] = target: T4, Kappa-type opioid receptor; format: functional; remark: listed apart in the source
HEK293 = experiment: EBV LMP1 TES2 canonical NF-kB signalling blockers – cell-based, HEK293, luciferase, cherry-pick, dose response (AID 588343); format: functional; conditions: Homo sapiens
[17] = target: T5, Serine/threonine-protein phosphatase (Candida dubliniensis (strain CD36 / CBS 7987 / NCPF 3949 / NRRLY-17841) (Yeast), UniProt B9W6M3); experiment: blockers of CaCl2-induced CDRE-lacZ signaling – S. cerevisiae, luminescence, secondary, dose response (AID 2388); format: functional, cell-based;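 also: yeast reporter cells carrying a calcineurin-responsive lacZ construct stimulated with calcium chloride; luminescent beta-galactosidase reporter signal in whole cells rather than isolated phosphatase activity; potency for inhibition where a drop in reporter signal means calcineurin blockade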
T5 sequence (B9W6M3 whole entry): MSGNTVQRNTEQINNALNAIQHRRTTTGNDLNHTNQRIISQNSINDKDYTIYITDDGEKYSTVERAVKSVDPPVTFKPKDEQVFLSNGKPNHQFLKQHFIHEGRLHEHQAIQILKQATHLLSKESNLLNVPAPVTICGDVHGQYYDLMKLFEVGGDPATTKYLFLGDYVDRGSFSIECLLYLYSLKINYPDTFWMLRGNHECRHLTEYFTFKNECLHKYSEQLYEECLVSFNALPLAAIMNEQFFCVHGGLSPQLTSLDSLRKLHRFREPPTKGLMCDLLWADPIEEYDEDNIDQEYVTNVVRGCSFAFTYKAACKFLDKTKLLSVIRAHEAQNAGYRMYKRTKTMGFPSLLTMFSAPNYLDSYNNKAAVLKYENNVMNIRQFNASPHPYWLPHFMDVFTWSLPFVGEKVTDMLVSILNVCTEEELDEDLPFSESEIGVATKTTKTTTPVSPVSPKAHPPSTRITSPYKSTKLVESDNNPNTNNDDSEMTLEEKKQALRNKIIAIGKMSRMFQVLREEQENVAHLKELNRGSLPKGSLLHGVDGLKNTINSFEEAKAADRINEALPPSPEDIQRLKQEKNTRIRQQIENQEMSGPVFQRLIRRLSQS

[18] = target: T3, Delta-type opioid receptor; experiment: HTS Image-Based Screen for Antagonists of the DOR Receptor. [Related pubchem assays (depositor defined):AID1777, AID1785, AID1786, AID2133]; format: functional
[19] = target: T1, Runt-related transcription factor 1/Core-binding factor subunit beta; experiment: Confirmation of compounds inhibiting the binding between the RUNX1 Runt domain and CBFb-SMMHC via a fluorescence resonance energy transfer (FRET) assay. [Related pubchem assays (depositor defined):AID1434, AID1438, AID1496, AID1550, AID1645]; format: protein assay
[20] = target: T1, Runt-related transcription factor 1/Core-binding factor subunit beta; experiment: Confirmation of compounds inhibiting the binding between the RUNX1 Runt domain and CBFb-SMMHC via a time resolved fluorescence resonance energy transfer (TR-FRET) assay. [Related pubchem assays (depositor defined):AID1434, AID1438, AID1496, AID1560, AID1645]; format: protein assay
[21] = PhoP promoter GFP reporter reduction in Typhimurium – purified and synthesized compounds, set 2, PhoP regulon inhibitor project, dose response (AID 2831); format: functional

T1 sequence (Q01196 whole entry, the tested form may be a part): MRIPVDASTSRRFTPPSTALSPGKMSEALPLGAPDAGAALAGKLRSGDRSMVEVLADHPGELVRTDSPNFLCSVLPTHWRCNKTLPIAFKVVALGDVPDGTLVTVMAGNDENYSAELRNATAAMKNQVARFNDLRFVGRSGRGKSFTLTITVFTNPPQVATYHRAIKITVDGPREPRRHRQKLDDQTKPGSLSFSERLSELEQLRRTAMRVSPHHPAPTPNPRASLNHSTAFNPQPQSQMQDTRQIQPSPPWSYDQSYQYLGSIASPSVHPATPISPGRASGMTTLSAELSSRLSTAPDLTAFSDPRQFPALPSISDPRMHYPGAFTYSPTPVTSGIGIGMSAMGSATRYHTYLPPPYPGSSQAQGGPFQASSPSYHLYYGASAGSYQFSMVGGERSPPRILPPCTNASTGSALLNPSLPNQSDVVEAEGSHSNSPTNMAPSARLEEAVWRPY
T1 sequence (Q13951 whole entry, the tested form may be a part): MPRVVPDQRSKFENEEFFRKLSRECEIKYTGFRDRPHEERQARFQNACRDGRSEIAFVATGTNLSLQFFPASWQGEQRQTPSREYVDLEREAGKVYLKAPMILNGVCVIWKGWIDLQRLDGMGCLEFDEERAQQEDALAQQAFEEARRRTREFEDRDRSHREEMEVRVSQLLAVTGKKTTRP
T4 sequence (P41145 whole entry): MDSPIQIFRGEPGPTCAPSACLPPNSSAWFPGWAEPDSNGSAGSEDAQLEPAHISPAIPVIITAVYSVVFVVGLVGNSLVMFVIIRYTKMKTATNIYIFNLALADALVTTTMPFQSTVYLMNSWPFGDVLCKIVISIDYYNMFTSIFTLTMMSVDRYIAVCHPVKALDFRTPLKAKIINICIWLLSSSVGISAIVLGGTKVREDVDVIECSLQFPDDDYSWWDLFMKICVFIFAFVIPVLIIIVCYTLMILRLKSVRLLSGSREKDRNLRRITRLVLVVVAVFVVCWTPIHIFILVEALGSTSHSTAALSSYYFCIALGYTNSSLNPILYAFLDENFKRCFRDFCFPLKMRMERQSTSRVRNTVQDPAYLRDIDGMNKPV
T3 sequence (P41143 whole entry): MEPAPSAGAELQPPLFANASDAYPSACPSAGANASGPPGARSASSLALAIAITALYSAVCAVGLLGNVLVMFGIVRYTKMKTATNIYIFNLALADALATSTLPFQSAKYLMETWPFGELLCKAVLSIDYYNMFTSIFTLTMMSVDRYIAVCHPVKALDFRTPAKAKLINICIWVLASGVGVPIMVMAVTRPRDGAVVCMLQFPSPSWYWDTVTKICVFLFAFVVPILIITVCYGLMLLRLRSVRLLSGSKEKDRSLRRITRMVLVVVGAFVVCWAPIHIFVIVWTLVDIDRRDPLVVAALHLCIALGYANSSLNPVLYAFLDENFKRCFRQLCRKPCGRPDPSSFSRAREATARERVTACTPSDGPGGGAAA
Chain of Intestinal-type alkaline phosphatase (Homo sapiens, UniProt P09923) (P09923 whole entry): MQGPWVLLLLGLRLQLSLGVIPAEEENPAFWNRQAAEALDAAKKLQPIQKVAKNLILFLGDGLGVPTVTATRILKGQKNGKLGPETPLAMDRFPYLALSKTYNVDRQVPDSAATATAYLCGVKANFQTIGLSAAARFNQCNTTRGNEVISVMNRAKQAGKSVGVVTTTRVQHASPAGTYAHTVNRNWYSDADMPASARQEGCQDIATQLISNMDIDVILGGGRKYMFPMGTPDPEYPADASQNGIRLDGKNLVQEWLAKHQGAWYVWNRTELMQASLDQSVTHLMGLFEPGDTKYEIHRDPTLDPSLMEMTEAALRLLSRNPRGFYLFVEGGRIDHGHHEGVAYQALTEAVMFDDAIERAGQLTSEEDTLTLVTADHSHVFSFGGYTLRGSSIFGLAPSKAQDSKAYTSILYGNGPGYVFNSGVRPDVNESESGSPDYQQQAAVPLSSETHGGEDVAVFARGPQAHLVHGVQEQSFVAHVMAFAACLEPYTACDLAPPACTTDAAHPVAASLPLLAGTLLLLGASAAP
Chain of Large T antigen (P03070 whole entry): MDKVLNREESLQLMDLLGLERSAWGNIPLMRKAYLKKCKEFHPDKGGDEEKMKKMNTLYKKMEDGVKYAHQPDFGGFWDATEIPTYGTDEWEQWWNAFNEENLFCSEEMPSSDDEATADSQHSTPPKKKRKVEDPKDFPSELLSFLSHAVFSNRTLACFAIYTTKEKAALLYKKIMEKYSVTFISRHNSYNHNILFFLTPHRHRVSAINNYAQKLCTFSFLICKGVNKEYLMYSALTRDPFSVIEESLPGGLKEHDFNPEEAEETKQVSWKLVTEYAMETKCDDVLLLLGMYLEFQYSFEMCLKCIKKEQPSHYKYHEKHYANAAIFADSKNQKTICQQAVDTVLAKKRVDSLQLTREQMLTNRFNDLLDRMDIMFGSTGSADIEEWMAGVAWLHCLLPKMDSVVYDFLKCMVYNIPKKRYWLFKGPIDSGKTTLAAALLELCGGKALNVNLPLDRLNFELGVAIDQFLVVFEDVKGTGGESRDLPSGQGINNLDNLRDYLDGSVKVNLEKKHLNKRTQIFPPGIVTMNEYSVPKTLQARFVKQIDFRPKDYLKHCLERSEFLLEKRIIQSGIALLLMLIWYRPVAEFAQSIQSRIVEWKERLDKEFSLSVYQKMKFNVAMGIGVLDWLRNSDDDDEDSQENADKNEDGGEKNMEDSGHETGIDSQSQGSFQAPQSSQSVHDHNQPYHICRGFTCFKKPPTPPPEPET
Chain of Ion channel NompC (Q7T1G6 whole entry): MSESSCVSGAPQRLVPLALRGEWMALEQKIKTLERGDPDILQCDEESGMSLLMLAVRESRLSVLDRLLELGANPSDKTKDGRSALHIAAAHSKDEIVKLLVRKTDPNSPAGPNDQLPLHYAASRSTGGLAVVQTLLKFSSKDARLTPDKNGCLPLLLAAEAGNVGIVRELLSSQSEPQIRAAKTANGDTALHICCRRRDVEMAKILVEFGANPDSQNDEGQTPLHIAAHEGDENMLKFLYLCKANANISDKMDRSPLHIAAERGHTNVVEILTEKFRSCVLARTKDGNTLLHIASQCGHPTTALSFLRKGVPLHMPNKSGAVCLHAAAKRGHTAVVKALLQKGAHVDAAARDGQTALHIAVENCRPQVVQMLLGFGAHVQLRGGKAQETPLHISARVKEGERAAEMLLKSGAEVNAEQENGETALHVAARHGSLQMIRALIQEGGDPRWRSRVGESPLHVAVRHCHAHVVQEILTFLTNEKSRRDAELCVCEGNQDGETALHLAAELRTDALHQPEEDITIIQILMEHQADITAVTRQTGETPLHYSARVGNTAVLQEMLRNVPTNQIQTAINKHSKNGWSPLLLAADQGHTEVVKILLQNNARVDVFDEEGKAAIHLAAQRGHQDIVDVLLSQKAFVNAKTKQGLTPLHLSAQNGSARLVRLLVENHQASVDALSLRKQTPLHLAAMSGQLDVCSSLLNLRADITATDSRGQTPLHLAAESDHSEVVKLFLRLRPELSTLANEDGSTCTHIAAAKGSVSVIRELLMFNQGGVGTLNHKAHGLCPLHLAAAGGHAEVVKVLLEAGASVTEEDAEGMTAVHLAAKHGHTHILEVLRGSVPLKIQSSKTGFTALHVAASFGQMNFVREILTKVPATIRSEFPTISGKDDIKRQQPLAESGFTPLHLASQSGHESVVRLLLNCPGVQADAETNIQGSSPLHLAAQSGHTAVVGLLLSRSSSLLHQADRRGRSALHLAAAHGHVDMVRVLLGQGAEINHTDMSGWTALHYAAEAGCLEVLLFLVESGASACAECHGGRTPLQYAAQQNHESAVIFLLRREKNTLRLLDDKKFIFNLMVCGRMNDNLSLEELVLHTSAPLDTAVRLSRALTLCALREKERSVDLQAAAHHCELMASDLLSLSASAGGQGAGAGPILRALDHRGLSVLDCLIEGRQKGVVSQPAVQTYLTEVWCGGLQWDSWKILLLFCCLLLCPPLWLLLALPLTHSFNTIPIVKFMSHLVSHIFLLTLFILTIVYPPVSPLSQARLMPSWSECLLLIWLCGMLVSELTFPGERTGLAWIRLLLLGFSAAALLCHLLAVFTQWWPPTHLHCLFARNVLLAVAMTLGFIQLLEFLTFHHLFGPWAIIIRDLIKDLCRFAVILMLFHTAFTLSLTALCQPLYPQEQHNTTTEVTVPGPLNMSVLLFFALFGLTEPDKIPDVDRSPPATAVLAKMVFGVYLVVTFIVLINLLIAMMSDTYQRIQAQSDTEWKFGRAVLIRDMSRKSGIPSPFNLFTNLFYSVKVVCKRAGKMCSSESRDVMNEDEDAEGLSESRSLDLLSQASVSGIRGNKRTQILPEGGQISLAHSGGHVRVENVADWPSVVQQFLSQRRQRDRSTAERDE
Chain of Intestinal-type alkaline phosphatase (Mus musculus, UniProt P24822) (P24822 whole entry): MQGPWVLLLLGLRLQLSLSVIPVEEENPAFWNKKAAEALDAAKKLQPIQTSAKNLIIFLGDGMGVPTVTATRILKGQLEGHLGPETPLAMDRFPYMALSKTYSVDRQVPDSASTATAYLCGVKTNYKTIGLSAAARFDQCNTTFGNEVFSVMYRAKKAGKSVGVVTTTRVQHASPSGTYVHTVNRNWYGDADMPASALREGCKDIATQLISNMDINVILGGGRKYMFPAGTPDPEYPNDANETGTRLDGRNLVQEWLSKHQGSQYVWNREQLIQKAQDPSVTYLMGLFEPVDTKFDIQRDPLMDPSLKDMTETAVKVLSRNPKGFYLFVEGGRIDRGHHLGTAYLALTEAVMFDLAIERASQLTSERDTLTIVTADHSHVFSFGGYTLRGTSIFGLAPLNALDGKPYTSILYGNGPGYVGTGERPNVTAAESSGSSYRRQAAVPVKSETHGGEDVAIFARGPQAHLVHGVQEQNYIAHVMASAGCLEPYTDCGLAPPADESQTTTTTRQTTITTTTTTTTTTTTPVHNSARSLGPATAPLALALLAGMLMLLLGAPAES

SMILES: COCCNC(=O)c1c(NC(=O)c2ccc(Br)o2)n(Cc2ccccc2)c2nc3ccccc3nc12
EC50 (Streptococcus): 4.36 µM (active)
IC50 [1]: > 100 µM (inactive)
IC50 [2]: 2.14 µM (active)
EC50 [3]: 1.9 µM (active)

SMILES: COC(=O)c1cccc(NC(=O)Nc2ccc(Cl)c(Cl)c2)c1
AC50 (Cytochrome P450 3A4): 22.4 µM (inconclusive)
AC50 [4]: 2.77 µM (active)
AC50 (INS1): 6.38 µM (active)
EC50 [5]: 2.15 µM (active)
AC50 (Cytochrome P450 2D6): 22.4 µM (inconclusive)
EC50 (Mucolipin-3): > 29.9 µM (not active)
EC50 [6]: > 60 µM (inconclusive)
EC50 (Ion channel NompC): > 29.9 µM (inactive)

EC50 [7]: > 100 µM (inactive)
IC50 (Large T antigen): 85 µM (active)
EC50 [8]: > 100 µM (inactive)
EC50 [9]: 2.03 µM (active)
SMILES: O=C(CN1C(=O)/C(=C/c2ccco2)SC1=S)NC1CCS(=O)(=O)C1 (centres undefined)
CC50 (Vero): > 40 µM (active)

SMILES: O=C(Nc1nnc(SCc2ccc(F)cc2)s1)c1ccccn1
EC50 (Streptococcus): 2.54 µM (active)
EC50 [10]: > 32 µM (inactive)
IC50 [11]: 4.45 µM (active)
EC50 [12]: 1.42 µM (active)
EC50 [13]: 4.97 µM (active)
AC50 [14]: 3.56 µM (active)
EC50 (Mu-type opioid receptor): > 32 µM (inactive)
EC50 (Beta-galactosidase): > 31.5 µM (inactive)
EC50 [15]: 74.7 µM (active)
EC50 [3]: 0.663 µM (active)
IC50 [16]: > 32 µM
AC50 (HEK293): 1.97 µM (active)
EC50 [17]: > 180 µM (inactive)
IC50 [18]: > 32 µM (inactive)

SMILES: Cc1cc(C=NNC(=O)Cn2c3ccccc3c(=O)c3ccccc32)c(C)n1-c1ccc(Cl)cc1
IC50 [19]: 3.58 µM (active)
IC50 [20]: 13.6 µM (active)

IC50 [21]: > 125 µM (active)
SMILES: O=C(Nc1ccc(Cl)cc1)N1CCCN(Cc2ccccc2F)C1
